Test results: patent US5576429A, “5-substituted pyrimidine nucleosides and nucleotides” (Medivir AB, priority 1988, dated 1996)
Where two headings read alike, the source gives them in different places.

Columns and labels:
[1] = target: T1, DNA polymerase alpha (Homo sapiens, UniProt P09884); assay: Test III Inhibition of cellular DNA polymerase alpha by triphosphates; type: biochemical; conditions: cellular DNAPα; read-out: Concentration for 50% inhibition (IC50) of DNAPα
T1 sequence (P09884 1-1462): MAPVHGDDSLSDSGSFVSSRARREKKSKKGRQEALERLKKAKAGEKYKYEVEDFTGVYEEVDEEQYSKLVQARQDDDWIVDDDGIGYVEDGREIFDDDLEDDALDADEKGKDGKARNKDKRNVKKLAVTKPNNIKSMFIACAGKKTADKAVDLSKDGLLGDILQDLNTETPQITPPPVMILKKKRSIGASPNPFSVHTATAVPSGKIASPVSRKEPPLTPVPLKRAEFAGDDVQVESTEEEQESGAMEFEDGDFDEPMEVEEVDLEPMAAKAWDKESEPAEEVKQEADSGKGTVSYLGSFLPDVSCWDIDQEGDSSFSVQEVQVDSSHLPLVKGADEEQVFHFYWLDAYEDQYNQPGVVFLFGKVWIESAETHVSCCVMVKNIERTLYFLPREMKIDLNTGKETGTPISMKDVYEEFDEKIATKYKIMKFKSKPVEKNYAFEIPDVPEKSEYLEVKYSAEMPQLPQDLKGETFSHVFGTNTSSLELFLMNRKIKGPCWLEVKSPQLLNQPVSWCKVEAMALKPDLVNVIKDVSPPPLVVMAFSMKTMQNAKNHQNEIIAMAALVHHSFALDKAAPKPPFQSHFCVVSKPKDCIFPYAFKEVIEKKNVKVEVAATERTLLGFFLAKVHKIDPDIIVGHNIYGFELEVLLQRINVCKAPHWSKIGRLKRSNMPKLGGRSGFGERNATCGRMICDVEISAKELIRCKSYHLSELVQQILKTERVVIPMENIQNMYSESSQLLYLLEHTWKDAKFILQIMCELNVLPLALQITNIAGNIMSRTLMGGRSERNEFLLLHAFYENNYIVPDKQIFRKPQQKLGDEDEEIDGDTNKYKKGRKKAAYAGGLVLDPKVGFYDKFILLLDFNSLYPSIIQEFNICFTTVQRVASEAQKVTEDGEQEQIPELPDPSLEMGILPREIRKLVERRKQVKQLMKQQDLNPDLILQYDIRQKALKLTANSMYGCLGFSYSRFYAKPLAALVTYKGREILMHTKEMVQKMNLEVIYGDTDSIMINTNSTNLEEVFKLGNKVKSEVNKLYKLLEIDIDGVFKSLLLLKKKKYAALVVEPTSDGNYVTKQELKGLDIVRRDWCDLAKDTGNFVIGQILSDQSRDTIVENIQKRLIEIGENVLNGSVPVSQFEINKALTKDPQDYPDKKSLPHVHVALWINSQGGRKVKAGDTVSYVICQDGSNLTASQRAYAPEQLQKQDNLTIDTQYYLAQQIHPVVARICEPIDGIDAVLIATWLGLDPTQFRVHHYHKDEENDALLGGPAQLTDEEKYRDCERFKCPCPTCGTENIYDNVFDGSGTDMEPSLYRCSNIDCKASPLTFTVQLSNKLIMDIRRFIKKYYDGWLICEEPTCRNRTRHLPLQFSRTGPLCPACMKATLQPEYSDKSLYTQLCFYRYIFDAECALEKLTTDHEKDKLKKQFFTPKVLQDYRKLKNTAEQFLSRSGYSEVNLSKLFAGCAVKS
Source text: (§1) Test III Inhibition of reverse transcriptases and DNA polymerases by triphosphates of compounds of the invention
(§2) The 5'-triphosphates were synthesized essentially as described (Yoshikawa, M, Kato T, Takenishi T, Bull. Chem. Soc. (Japan), 42,3505-3508, 1969; Ludwig, J., Acta Biochim. Biophys. Acad. Sci. Hung. 16, 131-133, 1981; Ruth, J. L., Cheng, Y. C., Mol. Pharmacol. 20, 415 1981.) The HIV-RT was obtained as described by Hansen et al (Hansen J, Schulze T and Moelling K, J. Biol. Chem. 262, 12393-12396, 1987) from culture of Escherichia coli expressing the cloned HIV-pol gene. The HBV-DNAP was prepared from virus obtained from human serum, essentially as described by Nordenfelt et al (1987) [Nordenfelt E, Lofgren B, Chattopadhyaya J., Oberg B, J. Med. Virol. 22, 231-236, 1987]. The HSV-2 DNAP and cellular DNAPα preparation and reaction conditions have been described by Larsson et al [Larsson A, Sundqvist A, Parnerud A-M, 1986, Mol. Pharmacol. 29, 614-621]. […] The hepatitis B virus enzyme activity was determined with a virus preparation solubilized by non-idet P40, and endogenous nucleic acid as template, as described by Nordenfelt et al (vide supra)

[2] = target: T2, Hepatit B virus DNA polymerase (Hepatitis B virus genotype D subtype ayw, UniProt P03156); assay: Test III Inhibition of HBV DNA polymerase by triphosphates; type: biochemical; conditions: virus preparation from human serum, endogenous nucleic acid as template; read-out: Concentration for 50% inhibition (IC50) of HBV DNAP
T2 construct: The HBV-DNAP was prepared from virus obtained from human serum; from tissue; host or cells: hepatitis B virus particles from human serum, solubilized with Nonidet P40
T2 sequence (P03156 whole entry): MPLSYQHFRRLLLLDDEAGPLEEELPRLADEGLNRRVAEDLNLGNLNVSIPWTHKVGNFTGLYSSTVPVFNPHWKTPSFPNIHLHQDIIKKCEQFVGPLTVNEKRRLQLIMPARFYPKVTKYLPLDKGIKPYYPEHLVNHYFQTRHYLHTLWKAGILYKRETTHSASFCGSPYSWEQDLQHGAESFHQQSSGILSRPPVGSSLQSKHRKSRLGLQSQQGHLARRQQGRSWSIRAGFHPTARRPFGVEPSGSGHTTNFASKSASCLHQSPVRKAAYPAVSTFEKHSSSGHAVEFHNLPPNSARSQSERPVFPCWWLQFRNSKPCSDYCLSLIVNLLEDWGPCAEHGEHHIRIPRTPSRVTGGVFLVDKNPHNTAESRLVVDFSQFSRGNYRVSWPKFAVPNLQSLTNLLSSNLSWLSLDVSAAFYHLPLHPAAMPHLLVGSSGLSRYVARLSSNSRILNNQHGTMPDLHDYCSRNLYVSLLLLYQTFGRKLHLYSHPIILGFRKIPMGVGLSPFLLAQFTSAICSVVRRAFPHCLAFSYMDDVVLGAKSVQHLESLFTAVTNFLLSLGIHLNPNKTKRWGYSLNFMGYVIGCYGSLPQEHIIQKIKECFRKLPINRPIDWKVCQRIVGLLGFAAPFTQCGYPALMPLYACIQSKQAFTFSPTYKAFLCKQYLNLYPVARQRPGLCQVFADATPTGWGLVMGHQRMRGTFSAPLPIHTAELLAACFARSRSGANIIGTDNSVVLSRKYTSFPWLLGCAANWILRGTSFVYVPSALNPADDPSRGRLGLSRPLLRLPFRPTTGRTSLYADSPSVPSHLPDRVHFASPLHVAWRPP
Source text: as §1, §2

[3] = target: T3, Human immuno deficiency virus reverse transcriptase (Human immunodeficiency virus type 1 group M subtype B, UniProt P04585); assay: Test III Inhibition of HIV reverse transcriptase by triphosphates; type: biochemical; conditions: template (rA)n(dT)12-18, substrate dTTP; read-out: Concentration for 50% inhibition (IC50) of HIV RT
T3 construct: Human immuno deficiency virus reverse transcriptase; made in house; host or cells: Escherichia coli
Source text: as §1, §2

[4] = target: Herpes simplex virus type 2 DNA polymerase (Human herpesvirus 2, UniProt P89453); assay: Test III Inhibition of HSV-2 DNA polymerase by triphosphates; type: biochemical; conditions: read-out: Concentration for 50% inhibition (IC50) of HSV-2 DNAP
Chain of Herpes simplex virus type 2 DNA polymerase (P89453 whole entry): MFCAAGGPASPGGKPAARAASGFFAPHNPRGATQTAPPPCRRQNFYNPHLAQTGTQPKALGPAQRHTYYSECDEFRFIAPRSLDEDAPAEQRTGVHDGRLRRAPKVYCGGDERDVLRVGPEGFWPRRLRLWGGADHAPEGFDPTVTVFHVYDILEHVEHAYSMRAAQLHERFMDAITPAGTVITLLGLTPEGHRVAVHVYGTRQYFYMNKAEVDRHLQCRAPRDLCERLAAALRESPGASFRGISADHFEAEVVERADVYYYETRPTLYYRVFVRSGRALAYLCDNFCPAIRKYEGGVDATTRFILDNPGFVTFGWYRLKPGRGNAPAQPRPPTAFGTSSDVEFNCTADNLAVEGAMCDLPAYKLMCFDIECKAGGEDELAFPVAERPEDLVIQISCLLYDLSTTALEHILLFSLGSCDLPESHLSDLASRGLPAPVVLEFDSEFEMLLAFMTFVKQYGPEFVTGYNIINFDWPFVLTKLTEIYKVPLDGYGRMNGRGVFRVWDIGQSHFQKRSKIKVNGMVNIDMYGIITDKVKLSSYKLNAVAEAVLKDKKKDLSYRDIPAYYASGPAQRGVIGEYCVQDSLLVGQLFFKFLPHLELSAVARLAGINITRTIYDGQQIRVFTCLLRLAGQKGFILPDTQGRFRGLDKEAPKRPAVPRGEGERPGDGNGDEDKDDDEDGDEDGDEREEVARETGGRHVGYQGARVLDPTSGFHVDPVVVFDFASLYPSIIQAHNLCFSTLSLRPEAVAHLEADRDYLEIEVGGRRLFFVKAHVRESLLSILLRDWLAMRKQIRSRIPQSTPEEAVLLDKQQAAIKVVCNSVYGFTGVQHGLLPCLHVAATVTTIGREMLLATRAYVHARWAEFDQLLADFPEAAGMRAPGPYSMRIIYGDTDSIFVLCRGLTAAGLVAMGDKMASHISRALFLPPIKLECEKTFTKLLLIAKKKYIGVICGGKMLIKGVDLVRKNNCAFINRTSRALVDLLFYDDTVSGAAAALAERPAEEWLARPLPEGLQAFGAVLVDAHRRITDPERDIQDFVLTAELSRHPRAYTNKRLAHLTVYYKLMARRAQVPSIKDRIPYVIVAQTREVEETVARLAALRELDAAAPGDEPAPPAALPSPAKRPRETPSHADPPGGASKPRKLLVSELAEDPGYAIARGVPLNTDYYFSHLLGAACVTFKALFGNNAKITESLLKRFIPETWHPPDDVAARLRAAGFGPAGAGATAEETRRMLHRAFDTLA
Source text: as §1, §2

[5] = test system: HIV (HTLV-IIIB); assay: Test I Effect of compounds on HIV in H9 cells (frequency of HIV antigen containing cells); type: cell-based
Protocol: Test I Effect of compounds of the formula I on HIV in H9 cells
Materials and methods: HIV infection of H9 cells
H9 cells, 10^5 cells per well on a 24 well plate, suspended in 2 ml RPMI-medium containing 10% fetal calf serum, 100 μg/ml pencillin, 10 μg/ml streptomycin sulfate and 2 μg/ml polybrene are exposed to HIV (HTLV-IIIB) and different concentrations of the test compounds. The plates are incubated at 37° C. in 5% CO2 for 6-7 days. The contents in each well is then homogenized with a pipette and transferred to a centrifuge tube. After centrifugation for 10 min at 1500 rpm the supernatant is removed and the cell pellet is analyzed by fixing in methanol on glass plates. Human HIV positive serum diluted 1:80 or 1:160 is added and incubated for 30 min at 37° C. The plate is then washed with phosphate-buffered saline (PBS) containing Ca^2+ and Mg^2 +. Sheep antihuman conjugate (FITC) is added and after a new incubation the plate is again washed with PBS. Contrast staining is done with Evans blue and after drying the frequency of HIV antigen containing cells is determined in a microscope.

[6] = Test II Cellular toxicity on H9 cells (cell number after 48 h); type: cell-based; conditions: human, read-out: % inhibition of cell multiplication, H9
[7] = Test II Cellular toxicity on F5000 cells (cell number after 48 h); type: cell-based, human; conditions: human, read-out: % inhibition of cell multiplication, F 5000
Protocol: (§3) Test II Cellular toxicity
(§4) F5000 cells, which are human embryo cells, 1×10^5 cells per plate, are incubated in Eagle's minimal essential medium, supplemented with Earle's salts, non-essential amino acids, 10% fetal calf serum, 10 mM hepes, 70 mg/l penicillin and 100 mg/l streptomycin, in absence or presence of test compounds. The number of cells per plate is determined after 48 h.

[8] = test system: H9 cells; assay: Test II Cellular toxicity on H9 cells (cell number after 48 h); type: cell-based; conditions: 200 μM
[9] = test system: F5000 cells; assay: Test II Cellular toxicity on F5000 cells (cell number after 48 h); type: cell-based, human; conditions: 100 μM
Protocol: as §3, §4

[10] = Human immunodeficiency virus 1, H9 cells, HIV (HTLV-IIIB), 6-7 days, read-out: Concentration for 50% inhibition (IC50) of human immuno deficiency virus multiplication in cell culture
[11] = Human immunodeficiency virus 1, IIIB, H9, read-out: Concentration for 50% inhibition (IC50) of human immuno deficiency virus multiplication in cell culture

## O=c1[nH]c(=O)n([C@@H]2C[C@H](O)[C@@H](COP(=O)(O)OP(=O)(O)OP(=O)(O)O)O2)cc1-c1cccs1 [1-(2-Deoxy-alpha-D-ribofuranasyl)-5-(2-thienyl)uracil-5'-triphosphate]
[1]
  IC50: 80000 nM
[2]
  IC50: 18000 nM
[3]
  IC50: 2000 nM
[4]
  IC50: 11000 nM

## O=c1[nH]c(=O)n([C@H]2C[C@H](O)[C@@H](COP(=O)(O)OP(=O)(O)OP(=O)(O)O)O2)cc1-c1cccs1 [1-(2-Deoxy-beta-D-ribofuranosyl)-5-(2-thienyl)uracil-5'-triphosphate]
[1]
  IC50: 1600 nM
[2]
  IC50: 110 nM
[3]
  IC50: 15 nM
[4]
  IC50: 60 nM

## O=c1[nH]c(=O)n([C@@H]2C[C@H](O)[C@@H](CO)O2)cc1-c1cccs1 [VSA 134, 1-(2-Deoxy-alpha-D-ribofuranosyl)-5-(2-thienyl)uracil]
[5]; [10]
  IC50: 50 to 10000 nM
[6]; 250 μM
  inhibition at 48 h, 250 µM: 35%
[7]; 100 μM
  inhibition at 48 h, 100 µM: 0 to 35%

## O=c1[nH]c(=O)n([C@@H]2C[C@H](O)[C@@H](CO)O2)cc1-c1ccc[se]1 [VSA 188]
[5]; [11]
  IC50: 2000 to 20000 nM
[6]
  inhibition at 48 h, 200 µM: 40%
[7]
  inhibition at 48 h, 200 µM: 15%

## O=c1[nH]c(=O)n([C@H]2C[C@H](O)[C@@H](CO)O2)cc1-c1cccs1 [VSA 189]
[8]
  % inhibition of cell multiplication, H9: 35%
[9]
  % inhibition of cell multiplication, F 5000: 10%

## O=c1[nH]c(=O)n([C@H]2C[C@H](O)[C@@H](CO)O2)cc1-c1cc[se]c1 [VSA 992]
[6]
  inhibition at 48 h, 200 µM: 40%
[7]
  inhibition at 48 h, 200 µM: 0%

## O=c1[nH]c(=O)n([C@@H]2C[C@H](O)[C@@H](CO)O2)cc1-c1cc[se]c1 [VSA 996]
[5]; [11]
  IC50: 3000 to 100000 nM
[6]
  inhibition at 48 h, 200 µM: 65%
[7]
  inhibition at 48 h, 200 µM: 30%

## O=c1[nH]c(=O)n([C@@H]2C[C@H](O)[C@@H](CO)O2)cc1-c1ccco1 [VSB 007, 1-(2-Deoxy-alpha-D-ribofuranosyl)-5-(2-furyl)uracil]
[5]; [10]
  IC50: < 10000 nM

## O=c1[nH]c(=O)n([C@H]2C[C@H](O)[C@@H](CO)O2)cc1-c1ccco1 [VSB 008, 1-(2-Deoxy-beta-D-ribofuranosyl)-5-(2-furyl)uracil]
[7]
  inhibition at 48 h, 200 µM: 0%
